These compounds were tested against T1, Gag-Pol polyprotein [1148-1435] (Human immunodeficiency virus 1, UniProt P04585) (assay: Integrase 3-End Joining Assay). Conditions: pH 7.3; 22 °C.
T1 construct: 1148-1435
Experimental: In the 3-end joining assay, the biotinylated donor DNA was bound to streptavidin-coated plates, and integrase was added to each well to allow processing of the donor DNA. Serially diluted compounds and DIG-tagged target DNA were then added to each well, and 3-end joining reaction was allowed to proceed for 30 min. Signal was detected using horseradishperoxidase-conjugated anti-Digoxin antibody through chemiluminescence measurement.

Q: `COc1c2c(c(O)c3ncccc13)C(=O)N(Cc1ccc(F)cc1)C2` was tested. Which IC50 did it give?
A: 0.06 µM

Q: How did the IC50 turn out when `O=C(NCc1ccc(F)cc1)c1nc(N2CCCCS2(=O)=O)c2cccnc2c1O` [5-(1,1-dioxo-1,2-thiazinan-2-yl)-N-[(4-fluorophenyl)methyl]-8-hydroxy-1,6-naphthyridine-7-carboxamide] was run?
A: 0.044 µM

Q: Which IC50 does the source give for `CC[C@H](CO)n1cc(C(=O)O)c(=O)c2cc(Cc3cccc(Cl)c3F)ccc21` [6-[(3-chloro-2-fluorophenyl)methyl]-1-[(2R)-1-hydroxybutan-2-yl]-4-oxo-1,4-dihydroquinoline-3-carboxylic acid] here?
A: 0.042 µM

Q: For `COc1c2c(c(OC)c3ncccc13)C(=O)N(Cc1ccc(F)cc1)C2` [7-[(4-fluorophenyl)methyl]-5,9-dimethoxy-6H,7H,8H-pyrrolo[3,4-g]quinolin-8-one], which IC50 is on record?
A: > 1000 µM

Q: Which IC50 does the source give for `COc1c2c(cc3ncccc13)C(=O)N(Cc1ccc(F)cc1)C2` [7-[(4-fluorophenyl)methyl]-5-methoxy-6H,7H,8H-pyrrolo[3,4-g]quinolin-8-one] here?
A: 24 µM

Q: Which IC50 does the source give for `O=C(O)C(=O)CC(=O)c1cccc(Cc2ccccc2)c1` [(2Z)-4-(3-benzylphenyl)-2-hydroxy-4-oxobut-2-enoic acid] here?
A: 0.026 µM

— BindingDB's records for doi:10.1016/j.jmb.2008.04.054 (Gilead Sciences, 2008)
